From patent publication US9808448B2, “Pharmaceutical compounds and use of same in cancer and tauopathies” (THE REGENTS OF THE UNIVERSITY OF MICHIGAN, priority 2013, dated 2017)
Like-named read-outs stand apart in the source and are kept apart here.

Experiments:
Type in all cases: cell-based
MEF (C57BL/6) = assay: Cell survival, MEF; settings: Mus musculus, read-out: IC50/μM MEF (C57BL/6)
MDA-MB-231 = assay: Cancer activity screen (MTT cell survival), MDA-MB-231; settings: Homo sapiens
MCF-7 = assay: Cancer activity screen (MTT cell survival), MCF-7; settings: Homo sapiens, MCF7
HeLa = assay: Cancer activity screen (MTT cell survival), HeLa; settings: Homo sapiens
MCF-10A = assay: Cancer activity screen (MTT cell survival), MCF-10A; settings: Homo sapiens

Structure (SMILES) | IC50 (MEF (C57BL/6); second table) [µM] | IC50 (MDA-MB-231; second table) [µM] | further results
CCn1c(=O)/c(=C2\Sc3ccccc3N2C)s/c1=C\c1cc[n+](C)cc1 | > 50 | 3.01 ± 0.26 | –
COC(=O)Cn1c(=O)/c(=C2\Sc3ccccc3N2C)s/c1=C\c1nccs1 | > 50 | > 30 | –
COC(=O)Cn1c(=O)/c(=C2\Sc3ccccc3N2C)s/c1=C\c1cccc[n+]1C | > 50 | 16.5 ± 1.05 | –
COC(=O)Cn1c(=O)/c(=C2\Sc3ccccc3N2C)s/c1=C\c1scc[n+]1Cc1ccccc1 | > 50 | 0.87 ± 0.14 | –
COC(=O)Cn1c(=O)/c(=C2\Sc3cc(C(F)(F)F)ccc3N2C)s/c1=C\c1ccccn1 | > 50 | > 30 | –
COC(=O)Cn1c(=O)/c(=C2\Sc3cc(C(F)(F)F)ccc3N2C)s/c1=C\c1nccs1 | > 50 | > 30 | –
CCn1c(=O)/c(=C2\Sc3ccccc3N2C)s/c1=C\c1scc[n+]1CC | > 30 | 2.2 ± 0.2 | IC50 (MCF-7; second table): 0.8 ± 0.1 µM
CCn1c(=O)/c(=C2\Sc3ccccc3N2C)s/c1=C\c1scc[n+]1Cc1ccccc1 | 6.8 ± 0.4 | 0.5 ± 0.1 | IC50 (MCF-7; second table): 0.6 ± 0.04 µM
CCn1c(=O)/c(=C2\Sc3cc(F)ccc3N2C)s/c1=C\c1cccc[n+]1CC | > 30 | 8.3 ± 1.1 | IC50 (MCF-7; second table): 0.9 ± 0.3 µM
CCn1c(=O)/c(=C2\Sc3c(F)cccc3N2C)s/c1=C\c1cccc[n+]1CC | 27.1 ± 3 | 2.8 ± 0.2 | IC50 (MCF-7; second table): 0.8 ± 0.1 µM
CCn1c(=O)/c(=C2\Sc3cccc(F)c3N2C)s/c1=C\c1cccc[n+]1CC | > 30 | 3.8 ± 0.2 | IC50 (MCF-7; second table): 1 ± 0.3 µM
CCn1c(=O)/c(=C2\Sc3ccc(F)cc3N2C)s/c1=C\c1cccc[n+]1CC | > 30 | 13.3 ± 0.7 | IC50 (MCF-7; second table): 2.4 ± 0.6 µM
CCn1c(=O)/c(=C2\Sc3cc(OC(F)(F)F)ccc3N2C)s/c1=C\c1scc[n+]1Cc1ccccc1 | 1.2 ± 0.1 | 0.8 ± 0.1 | IC50 (MCF-7; second table): 0.4 ± 0.04 µM
COC(=O)Cn1c(=O)/c(=C2\Sc3cc(F)ccc3N2C)s/c1=C\c1ccccn1 | – | > 20 | –
COC(=O)Cn1c(=O)/c(=C2\Sc3ccc(F)cc3N2C)s/c1=C\c1ccccn1 | – | > 20 | –
COC(=O)Cn1c(=O)/c(=C2\Sc3cc(F)ccc3N2C)s/c1=C\c1ccncc1 | – | 2 ± 0.2 | –
COC(=O)Cn1c(=O)/c(=C2\Sc3ccc(F)cc3N2C)s/c1=C\c1ccncc1 | – | > 20 | –

Structure (SMILES) | IC50 (MEF (C57BL/6); second table) [µM] | IC50 (MDA-MB-231; second table) [µM] | further results
COC(=O)Cn1c(=O)/c(=C2\Sc3cccc(F)c3N2C)s/c1=C\c1ccccn1 | – | > 20 | –
COC(=O)Cn1c(=O)/c(=C2\Sc3c(F)cccc3N2C)s/c1=C\c1ccccn1 | – | > 20 | –
COC(=O)Cn1c(=O)/c(=C2\Sc3cccc(F)c3N2C)s/c1=C\c1ccncc1 | – | > 20 | –
COC(=O)Cn1c(=O)/c(=C2\Sc3c(F)cccc3N2C)s/c1=C\c1ccncc1 | – | > 20 | –
CCn1c(=O)/c(=C2\Sc3cc(C(F)(F)F)ccc3N2C)s/c1=C\c1ccncc1 | – | > 20 | –
CCn1c(=O)/c(=C2\Sc3cc(Cl)ccc3N2C)s/c1=C\c1scc[n+]1C(C)C(=O)c1ccccc1 (stereo not shown) | – | 0.34 ± 0.03 | –
CN1/C(=c2\s/c(=C\c3ccncc3)n(CC(=O)O)c2=O)Sc2cccc(F)c21 | – | > 20 | –
CN1/C(=c2\s/c(=C\c3ccncc3)n(CC(=O)O)c2=O)Sc2cc(F)ccc21 | – | > 20 | –
COC(=O)CCn1c(=O)/c(=C2\Sc3cc(F)ccc3N2C)s/c1=C\c1scc[n+]1Cc1ccccc1 | – | 0.96 ± 0.07 | –
COC(=O)CCn1c(=O)/c(=C2\Sc3cc(Cl)ccc3N2C)s/c1=C\c1scc[n+]1Cc1ccccc1 | – | 0.24 ± 0.03 | –
COC(=O)CCn1c(=O)/c(=C2\Sc3cc(F)ccc3N2C)s/c1=C\c1ccccn1 | – | 9 ± 1.7 | –
CN1/C(=c2\s/c(=C\c3scc[n+]3Cc3ccccc3)n(C3CC3)c2=O)Sc2cc(F)ccc21 | – | 0.76 ± 0.08 | –
CCn1c(=O)/c(=C2\Sc3ccc(OC(F)(F)F)cc3N2C)s/c1=C\c1scc[n+]1Cc1ccccc1 | – | 1.25 ± 0.13 | –
CCn1c(=O)/c(=C2\Sc3ccc(S(C)(=O)=O)cc3N2C)s/c1=C\c1scc[n+]1Cc1ccccc1 | – | > 20 | –
CCn1c(=O)/c(=C2\Sc3cccc(F)c3N2C)s/c1=C\c1scc[n+]1Cc1ccccc1 [drawing 56] | – | – | IC50 (MCF-7): 0.96 ± 0.2 µM; IC50 (MEF (C57BL/6)): 8.29 ± 0.66 µM; IC50 (HeLa): 2.23 ± 0.28 µM; IC50 (MDA-MB-231): 0.4 ± 0.03 µM; IC50 (MCF-10A): 1.07 ± 0.05 µM
CCn1c(=O)/c(=C2\Sc3cccc(Cl)c3N2C)s/c1=C\c1scc[n+]1Cc1ccccc1 [drawing 57] | – | – | IC50 (MCF-7): 0.83 ± 0.19 µM; IC50 (MEF (C57BL/6)): 6.96 ± 0.63 µM; IC50 (HeLa): 1.87 ± 0.23 µM; IC50 (MDA-MB-231): 0.41 ± 0.02 µM; IC50 (MCF-10A): 1.14 ± 0.15 µM
